Read-outs that look alike come from different tables or passages of the source.
System: cancer cells
Experiment: MTS assay: inhibition of cell growth (formazan absorbance at 492 nm after 72 hours with test compound)
Format: cell-based
Conditions: inhibition class
In short: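 DMEM with 1% FBS; cells seeded at 3000/well and grown 18 h at 37 °C, then exposed to compound for 72 h and to MTS/PMS for 4 h. IC50 is the concentration giving a 50% absorbance drop; grades are % inhibition bands.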

[1] = Homo sapiens, DLD-1 cells, read-out: DLD-1, MTS 72 hours at 10 uM
[2] = Homo sapiens, KATO III cells, read-out: KATO III, MTS 72 hours at 10 uM
[3] = Homo sapiens, MDA-MB-231 cells, read-out: MDA-MB-231, MTS 72 hours at 10 uM
[4] = Homo sapiens, NCI-H1299 cells, read-out: NCI-H1299, MTS 72 hours at 10 uM
[5] = Homo sapiens, PC-3 cells, read-out: PC-3, MTS 72 hours at 10 uM
[6] = PACA-2 cells, read-out: PACA-2, MTS 72 hours at 10 uM

SMILES	inhibition at 10 µM [1] [%]	inhibition at 10 µM [2] [%]	inhibition at 10 µM [3] [%]	inhibition at 10 µM [4] [%]	inhibition at 10 µM [5] [%]	inhibition at 10 µM [6] [%]
c1ccc(CN2CCc3n[nH]c4nc(NCCOc5ccccc5)nc2c34)cc1 [Compound 34, 6-benzyl-N-(2-phenoxyethyl)-2,6,7,8-tetrahydro-1,2,3,5,6-pentaazaacenaphthylen-4-amine]	< 50	< 50	50 to 79	< 50	< 50	50 to 79
O=C(NCc1ccccc1)C1CN(Cc2ccccc2)c2nc(NCc3ccc(Oc4ccccc4)cc3)nc3[nH]nc1c23 (stereo not drawn) [Compound 230, N,6-dibenzyl-4-[(4-phenoxybenzyl)amino]-2,6,7,8-tetrahydro-1,2,3,5,6-pentaazaacenaphthylene-8-carboxamide]	> 79	50 to 79	< 50	50 to 79	50 to 79	< 50
c1ccc(CN2CCc3n[nH]c4nc(NCCN5CCOCC5)nc2c34)cc1 [Compound 57, 6-benzyl-N-(2-morpholin-4-ylethyl)-2,6,7,8-tetrahydro-1,2,3,5,6-pentaazaacenaphthylen-4-amine]	> 79	> 79	> 79	50 to 79	> 79	> 79
c1ccc(CN2CCc3n[nH]c4nc(NCc5ccc6c(c5)CCO6)nc2c34)cc1 [Compound 63, 6-benzyl-N-(2,3-dihydro-1-benzofuran-5-ylmethyl)-2,6,7,8-tetrahydro-1,2,3,5,6-pentaazaacenaphthylen-4-amine]	< 50	< 50	< 50	< 50	< 50	< 50
c1ccc(CN2CCc3n[nH]c4nc(NCc5cccc(-c6ccccc6)c5)nc2c34)cc1 [Compound 71, 6-benzyl-N-(biphenyl-3-ylmethyl)-2,6,7,8-tetrahydro-1,2,3,5,6-pentaazaacenaphthylen-4-amine]	50 to 79	50 to 79	50 to 79	50 to 79	< 50	50 to 79
c1ccc(CN2CCc3n[nH]c4nc(NCc5ccco5)nc2c34)cc1 [Compound 54, 6-benzyl-N-(2-furylmethyl)-2,6,7,8-tetrahydro-1,2,3,5,6-pentaazaacenaphthylen-4-amine]	< 50	< 50	< 50	< 50	< 50	< 50
COc1ccc(CN2CCc3n[nH]c4nc(NCCc5c[nH]c6ccccc56)nc2c34)cc1 [Compound 104, N-[2-(1H-indol-3-yl)ethyl]-6-(4-methoxybenzyl)-2,6,7,8-tetrahydro-1,2,3,5,6-pentaazaacenaphthylen-4-amine]	50 to 79	50 to 79	< 50	50 to 79	< 50	< 50
c1ccc(N2CCc3n[nH]c4nc(NC5CCCCC5)nc2c34)cc1 [Compound 211, N-cyclohexyl-6-phenyl-2,6,7,8-tetrahydro-1,2,3,5,6-pentaazaacenaphthylen-4-amine]	< 50	< 50	< 50	< 50	< 50	< 50
c1ccc(N2CCc3n[nH]c4nc(NCc5cccnc5)nc2c34)cc1 [Compound 214, 6-phenyl-N-(pyridin-3-ylmethyl)-2,6,7,8-tetrahydro-1,2,3,5,6-pentaazaacenaphthylen-4-amine]	50 to 79	50 to 79	< 50	50 to 79	< 50	50 to 79
c1ccc(CN2CCc3n[nH]c4nc(N5CCN(Cc6ccc7c(c6)OCO7)CC5)nc2c34)cc1 [Compound 15, 4-[4-(1,3-benzodioxol-5-ylmethyl)piperazin-1-yl]-6-benzyl-2,6,7,8-tetrahydro-1,2,3,5,6-pentaazaacenaphthylene]	< 50	< 50	< 50	< 50	< 50	< 50
c1ccc(CN2CCc3n[nH]c4nc(NCc5ccc(-c6ccccc6)cc5)nc2c34)cc1 [Compound 79, 6-benzyl-N-(biphenyl-4-ylmethyl)-2,6,7,8-tetrahydro-1,2,3,5,6-pentaazaacenaphthylen-4-amine]	> 79	50 to 79	50 to 79	> 79	< 50	< 50
c1ccc(CN2CCc3n[nH]c4nc(NCCc5c[nH]c6ccccc56)nc2c34)cc1 [Compound 26, 6-benzyl-N-[2-(1H-indol-3-yl)ethyl]-2,6,7,8-tetrahydro-1,2,3,5,6-pentaazaacenaphthylen-4-amine]	< 50	< 50	< 50	< 50	< 50	< 50
COc1ccccc1CCNc1nc2c3c(n[nH]c3n1)CCN2Cc1ccccc1 [Compound 48, 6-benzyl-N-[2-(2-methoxyphenyl)ethyl]-2,6,7,8-tetrahydro-1,2,3,5,6-pentaazaacenaphthylen-4-amine]	< 50	< 50	50 to 79	< 50	< 50	< 50
FC(F)(F)c1cccc(N2CCN(c3nc4c5c(n[nH]c5n3)CCN4Cc3ccccc3)CC2)c1 [Compound 38, 6-benzyl-4-{4-[3-(trifluoromethyl)phenyl]piperazin-1-yl}-2,6,7,8-tetrahydro-1,2,3,5,6-pentaazaacenaphthylene]	< 50	< 50	< 50	< 50	< 50	< 50
c1ccc(N2CCc3n[nH]c4nc(N5CCN(c6ccncc6)CC5)nc2c34)cc1 [Compound 210, 6-phenyl-4-(4-pyridin-4-ylpiperazin-1-yl)-2,6,7,8-tetrahydro-1,2,3,5,6-pentaazaacenaphthylene]	> 79	> 79	> 79	> 79	> 79	> 79
CN(CCO)c1nc2c3c(n[nH]c3n1)CCN2Cc1ccccc1 [Compound 64, 2-[(6-benzyl-2,6,7,8-tetrahydro-1,2,3,5,6-pentaazaacenaphthylen-4-yl)(methyl)amino]ethanol]	< 50	< 50	< 50	< 50	< 50	< 50
Fc1ccc(CCNc2nc3c4c(n[nH]c4n2)CCN3c2ccccc2)cc1 [Compound 221, N-[2-(4-fluorophenyl)ethyl]-6-phenyl-2,6,7,8-tetrahydro-1,2,3,5,6-pentaazaacenaphthylen-4-amine]	< 50	< 50	< 50	< 50	< 50	< 50

— patent US8343983B2, “Substituted pyrazolo-pyrimidine compounds” (ArQule, Inc., priority 2009, dated 2013)
